From ChEMBL document CHEMBL1201862, “PubChem BioAssay data set” (2004)
Activity calls are given as the source filed them.

How the values were obtained:
[1] = A Cell Based Secondary Assay To Explore Cytotoxicity of Compounds that Sensitize Mycobacterium Tuberculosis to Beta-Lactam Antibiotics.; type: functional
Cytochrome P450 2D6 = Cytochrome P450 2D6 (Homo sapiens, UniProt P10635);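 also: CYP2D6 member of a cytochrome P450 panel assay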
[2] = molecular target: T1, Adenosylmethionine-8-amino-7-oxononanoate aminotransferase (Mycobacterium tuberculosis, UniProt P9WQ81); assay: Mycobacterium tuberculosis BioA enzyme inhibitor Measured in Biochemical System Using Plate Reader - 2163-02_Inhibitor_Dose_CherryPick_Activity.; type: functional, Mycobacterium tuberculosis UT205
T1 sequence (P9WQ81 whole entry): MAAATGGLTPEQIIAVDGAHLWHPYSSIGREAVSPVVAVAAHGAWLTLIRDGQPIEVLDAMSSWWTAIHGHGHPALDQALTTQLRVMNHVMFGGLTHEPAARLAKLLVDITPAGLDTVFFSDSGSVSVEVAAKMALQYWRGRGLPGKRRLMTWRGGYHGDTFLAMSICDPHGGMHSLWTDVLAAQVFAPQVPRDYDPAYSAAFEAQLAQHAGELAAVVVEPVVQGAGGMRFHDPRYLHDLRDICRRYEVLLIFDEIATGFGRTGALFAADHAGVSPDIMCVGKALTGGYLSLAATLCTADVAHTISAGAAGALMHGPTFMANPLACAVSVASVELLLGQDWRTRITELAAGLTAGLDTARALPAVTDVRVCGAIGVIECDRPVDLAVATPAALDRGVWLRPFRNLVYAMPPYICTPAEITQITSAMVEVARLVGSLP

[3] = inhibitors of intracellular T. cruzi replication, confirmation, NIH3T3 host cells, beta-gal luminescence (AID 2044); type: functional, cell-based;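 also: intracellular parasites grown in NIH/3T3 mouse fibroblasts as host cells; luminescent beta-galactosidase reporter signal from transgenic T. cruzi replicating inside host cells; inhibitors lower the luminescence signal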
[4] = cytotoxicity toward NIH3T3 fibroblasts, dose response, counter-screen, cell-based, ATP luminescence, mouse fibroblasts (AID 2010); type: functional;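 also: cells exposed to compound for about 90 hours before reading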
INS1 = assay: beta cell apoptosis inhibitors, cytokine rescue, dose response, luminescence, retest (AID 449756); type: functional, cell-based; conditions: Rattus norvegicus;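 also: cell death triggered by IL-1 beta plus TNF-alpha plus IFN-gamma mixture; protective hits raise ATP signal compared with cytokine alone wells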
[5] = THP-1 cell cytotoxicity, dose response, cytotoxicity control for Vif-APOBEC3G degradation inhibitor project, THP-1 cells (AID 1117359); type: functional; conditions: Human immunodeficiency virus 1, THP-1
Beta-galactosidase = Beta-galactosidase (Escherichia coli, UniProt Q8VNN2); assay: PubChem AID 485352; type: functional
Sequence of Beta-galactosidase (Q8VNN2 whole entry): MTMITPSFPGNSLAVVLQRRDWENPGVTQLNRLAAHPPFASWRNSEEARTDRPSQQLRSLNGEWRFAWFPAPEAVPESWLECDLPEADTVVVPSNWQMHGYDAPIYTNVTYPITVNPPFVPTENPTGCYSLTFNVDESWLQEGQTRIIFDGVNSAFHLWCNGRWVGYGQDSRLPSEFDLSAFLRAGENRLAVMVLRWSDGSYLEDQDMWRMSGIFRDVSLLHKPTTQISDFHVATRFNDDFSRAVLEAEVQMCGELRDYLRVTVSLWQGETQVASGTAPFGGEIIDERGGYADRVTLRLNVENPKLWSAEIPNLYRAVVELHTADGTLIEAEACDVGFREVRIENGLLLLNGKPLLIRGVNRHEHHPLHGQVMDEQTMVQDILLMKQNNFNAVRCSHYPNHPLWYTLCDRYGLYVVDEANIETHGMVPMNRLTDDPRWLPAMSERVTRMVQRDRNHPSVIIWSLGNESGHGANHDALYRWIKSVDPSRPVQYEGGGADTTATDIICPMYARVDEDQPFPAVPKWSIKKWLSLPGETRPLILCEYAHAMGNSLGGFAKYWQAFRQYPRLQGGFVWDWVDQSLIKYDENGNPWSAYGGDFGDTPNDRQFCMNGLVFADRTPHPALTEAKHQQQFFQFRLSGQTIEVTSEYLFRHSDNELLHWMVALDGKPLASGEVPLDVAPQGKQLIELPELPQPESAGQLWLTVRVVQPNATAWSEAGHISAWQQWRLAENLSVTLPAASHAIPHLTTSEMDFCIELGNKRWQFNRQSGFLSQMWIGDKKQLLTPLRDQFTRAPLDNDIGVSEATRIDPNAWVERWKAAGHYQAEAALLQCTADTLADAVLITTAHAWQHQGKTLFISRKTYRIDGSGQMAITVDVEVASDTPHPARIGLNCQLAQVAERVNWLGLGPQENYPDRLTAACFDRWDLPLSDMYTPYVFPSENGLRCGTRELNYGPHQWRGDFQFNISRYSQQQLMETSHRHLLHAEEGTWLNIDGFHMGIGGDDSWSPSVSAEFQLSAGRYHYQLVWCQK

[6] = molecular target: T2, Type-1 angiotensin II receptor (Homo sapiens, UniProt P30556); assay: AT1 receptor antagonists, dose response, selectivity assay for APJ receptor antagonist project, cell-based, uHTS hits (AID 463214); type: functional;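 also: antagonist potency against angiotensin II stimulated AT1 response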
T2 sequence (P30556 whole entry): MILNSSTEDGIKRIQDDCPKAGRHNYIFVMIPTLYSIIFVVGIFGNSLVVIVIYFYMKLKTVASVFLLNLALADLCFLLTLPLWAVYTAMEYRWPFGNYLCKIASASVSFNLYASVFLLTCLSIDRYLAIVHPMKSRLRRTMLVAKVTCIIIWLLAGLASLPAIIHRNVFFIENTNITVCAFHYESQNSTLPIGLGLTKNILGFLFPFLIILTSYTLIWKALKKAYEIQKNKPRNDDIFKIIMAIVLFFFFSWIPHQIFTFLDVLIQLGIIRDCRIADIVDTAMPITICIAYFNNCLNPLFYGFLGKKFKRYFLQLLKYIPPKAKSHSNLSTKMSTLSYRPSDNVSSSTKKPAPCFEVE

[7] = system: Streptococcus sp. 'group A'; assay: growth inhibition of control SK(-) GAS strain, dose response, counter-screen for streptokinase expression inhibitor project, luminescence, kanamycin, BacTiterGlo, confirmation (AID 1900); type: functional, organism-based
Streptokinase A = molecular target: T3, Streptokinase A (Streptococcus pyogenes serotype M1, UniProt P10520); assay: S. pyogenes streptokinase expression inhibitors, potency, dose response, plasminogen activation absorbance, OD405 (AID 1914); type: functional, Streptococcus pyogenes M1 GAS;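 also: secreted streptokinase activity via plasminogen activation per viability signal from cell pellet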
T3 sequence (P10520 whole entry): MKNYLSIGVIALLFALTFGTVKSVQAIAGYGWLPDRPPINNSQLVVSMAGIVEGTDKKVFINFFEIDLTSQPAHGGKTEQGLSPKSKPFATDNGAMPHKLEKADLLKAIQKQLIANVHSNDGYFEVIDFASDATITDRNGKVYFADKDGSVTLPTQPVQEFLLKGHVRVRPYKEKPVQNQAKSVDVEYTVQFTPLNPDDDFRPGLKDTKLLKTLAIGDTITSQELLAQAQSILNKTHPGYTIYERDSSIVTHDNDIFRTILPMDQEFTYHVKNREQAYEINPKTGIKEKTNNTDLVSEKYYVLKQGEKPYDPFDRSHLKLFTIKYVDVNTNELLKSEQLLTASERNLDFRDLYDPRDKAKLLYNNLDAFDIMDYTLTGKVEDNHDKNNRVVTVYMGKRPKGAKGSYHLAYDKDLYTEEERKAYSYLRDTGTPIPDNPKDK

Streptococcus = assay: Group A Streptococcus viability loss, dose response, counter-screen for streptokinase expression inhibitor project, luminescence, BacTiterGlo (AID 1915); type: functional, organism-based;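 also: potency for reduction of bacterial viability or growth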
Caspase-3 [8] = molecular target: T4, Caspase-3 (Homo sapiens, UniProt P42574); type: functional
T4 sequence (P42574 whole entry): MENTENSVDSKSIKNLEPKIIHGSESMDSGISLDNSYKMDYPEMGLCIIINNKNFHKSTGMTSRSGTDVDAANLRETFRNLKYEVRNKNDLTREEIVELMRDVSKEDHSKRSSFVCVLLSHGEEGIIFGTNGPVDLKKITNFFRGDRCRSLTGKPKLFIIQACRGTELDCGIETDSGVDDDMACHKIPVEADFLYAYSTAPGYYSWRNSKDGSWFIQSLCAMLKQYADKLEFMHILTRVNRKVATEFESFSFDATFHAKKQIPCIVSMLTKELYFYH

[9] = molecular target: T5, Sentrin-specific protease 7 (Homo sapiens, UniProt Q9BQF6); type: functional;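 also: Luminescence-based dose-response confirmation of ultra-high-throughput screening hits, measuring inhibition of SENP7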
T5 sequence (Q9BQF6 whole entry): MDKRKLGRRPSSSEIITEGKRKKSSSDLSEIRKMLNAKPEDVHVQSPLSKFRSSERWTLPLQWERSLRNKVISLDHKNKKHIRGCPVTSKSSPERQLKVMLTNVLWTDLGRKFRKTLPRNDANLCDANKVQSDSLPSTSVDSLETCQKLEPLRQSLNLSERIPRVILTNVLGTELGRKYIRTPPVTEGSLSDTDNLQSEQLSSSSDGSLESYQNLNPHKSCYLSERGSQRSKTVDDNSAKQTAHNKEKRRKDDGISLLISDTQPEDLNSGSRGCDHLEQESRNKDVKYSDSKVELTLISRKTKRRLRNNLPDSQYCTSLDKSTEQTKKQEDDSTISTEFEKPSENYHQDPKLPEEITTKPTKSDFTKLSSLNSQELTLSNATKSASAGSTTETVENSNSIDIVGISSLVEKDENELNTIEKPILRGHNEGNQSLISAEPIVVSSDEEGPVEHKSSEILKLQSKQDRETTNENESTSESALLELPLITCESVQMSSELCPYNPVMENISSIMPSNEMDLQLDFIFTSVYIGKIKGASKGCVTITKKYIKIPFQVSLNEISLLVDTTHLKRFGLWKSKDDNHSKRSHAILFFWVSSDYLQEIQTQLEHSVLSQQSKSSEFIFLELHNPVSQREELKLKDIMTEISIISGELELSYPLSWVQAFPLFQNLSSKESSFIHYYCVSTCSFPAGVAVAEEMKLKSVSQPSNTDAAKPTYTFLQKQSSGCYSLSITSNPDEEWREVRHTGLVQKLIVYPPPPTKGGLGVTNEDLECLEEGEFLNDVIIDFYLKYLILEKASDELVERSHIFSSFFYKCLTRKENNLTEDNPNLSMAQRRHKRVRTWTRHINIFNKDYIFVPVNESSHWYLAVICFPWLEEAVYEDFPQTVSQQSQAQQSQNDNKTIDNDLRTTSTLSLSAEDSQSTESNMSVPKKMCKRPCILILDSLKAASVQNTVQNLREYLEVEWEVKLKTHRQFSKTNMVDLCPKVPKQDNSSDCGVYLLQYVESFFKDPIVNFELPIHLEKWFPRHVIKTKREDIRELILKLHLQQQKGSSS

[10] = molecular target: T6, Sentrin-specific protease 6 (Homo sapiens, UniProt Q9GZR1); type: functional
T6 sequence (Q9GZR1 whole entry): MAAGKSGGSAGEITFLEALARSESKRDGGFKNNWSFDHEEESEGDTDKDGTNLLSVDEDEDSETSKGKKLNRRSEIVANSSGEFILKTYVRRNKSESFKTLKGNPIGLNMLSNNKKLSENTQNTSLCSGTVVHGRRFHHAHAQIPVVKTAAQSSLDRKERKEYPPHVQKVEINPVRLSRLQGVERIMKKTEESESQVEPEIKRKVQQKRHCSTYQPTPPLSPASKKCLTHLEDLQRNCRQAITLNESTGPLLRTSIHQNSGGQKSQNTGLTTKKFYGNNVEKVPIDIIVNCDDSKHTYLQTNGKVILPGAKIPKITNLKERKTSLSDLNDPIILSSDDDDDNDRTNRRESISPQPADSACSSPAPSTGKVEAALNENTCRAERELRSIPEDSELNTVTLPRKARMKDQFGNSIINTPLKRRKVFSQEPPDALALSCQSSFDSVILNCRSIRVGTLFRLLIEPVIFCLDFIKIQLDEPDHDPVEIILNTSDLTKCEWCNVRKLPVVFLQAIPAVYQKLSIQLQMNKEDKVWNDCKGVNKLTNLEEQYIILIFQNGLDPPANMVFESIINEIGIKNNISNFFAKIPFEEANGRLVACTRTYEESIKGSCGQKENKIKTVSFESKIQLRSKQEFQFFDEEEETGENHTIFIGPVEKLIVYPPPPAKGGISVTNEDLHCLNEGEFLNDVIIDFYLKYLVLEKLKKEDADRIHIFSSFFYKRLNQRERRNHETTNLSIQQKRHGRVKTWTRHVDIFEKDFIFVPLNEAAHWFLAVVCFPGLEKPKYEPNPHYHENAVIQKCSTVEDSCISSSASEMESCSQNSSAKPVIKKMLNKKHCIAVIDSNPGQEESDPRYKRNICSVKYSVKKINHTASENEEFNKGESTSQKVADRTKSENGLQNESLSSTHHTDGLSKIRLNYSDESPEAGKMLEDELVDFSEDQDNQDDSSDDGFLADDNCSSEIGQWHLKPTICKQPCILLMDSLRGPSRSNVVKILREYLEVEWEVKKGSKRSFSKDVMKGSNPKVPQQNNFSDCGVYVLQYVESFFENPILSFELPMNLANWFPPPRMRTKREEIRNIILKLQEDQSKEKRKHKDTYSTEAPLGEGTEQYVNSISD

[11] = molecular target: T7, Sentrin-specific protease 8 (Homo sapiens, UniProt Q96LD8); type: functional;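 also: luminescence read-out of SENP8 inhibition, dose-response confirmation following an ultra-high-throughput screen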
T7 sequence (Q96LD8 whole entry): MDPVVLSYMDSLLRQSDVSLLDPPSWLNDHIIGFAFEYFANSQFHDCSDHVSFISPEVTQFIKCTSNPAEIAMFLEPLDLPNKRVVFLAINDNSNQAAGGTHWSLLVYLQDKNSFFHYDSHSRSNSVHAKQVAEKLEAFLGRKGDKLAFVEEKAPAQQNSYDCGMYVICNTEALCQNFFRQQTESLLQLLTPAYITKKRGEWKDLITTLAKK

Caspase-3 [12] = molecular target: T4, Caspase-3; assay: SAR Analysis of small molecule inhibitors of Sentrin-specific proteases (SENPs) using a Caspase-3 Selectivity assay. [Related pubchem assays (depositor defined):AID2540, AID2599, AID434973, AID489001]; type: functional
[13] = molecular target: T6, Sentrin-specific protease 6; assay: SAR Analysis of small molecule inhibitors of Sentrin-specific protease 6 (SENP6) using a Luminescent assay. [Related pubchem assays (depositor defined):AID2582, AID2599]; type: functional
[14] = molecular target: T5, Sentrin-specific protease 7; assay: SENP7 protease inhibitors, SAR follow-up, biochemical, luminescence (AID 504497); type: functional

Sequence of Cytochrome P450 2D6 (P10635 whole entry): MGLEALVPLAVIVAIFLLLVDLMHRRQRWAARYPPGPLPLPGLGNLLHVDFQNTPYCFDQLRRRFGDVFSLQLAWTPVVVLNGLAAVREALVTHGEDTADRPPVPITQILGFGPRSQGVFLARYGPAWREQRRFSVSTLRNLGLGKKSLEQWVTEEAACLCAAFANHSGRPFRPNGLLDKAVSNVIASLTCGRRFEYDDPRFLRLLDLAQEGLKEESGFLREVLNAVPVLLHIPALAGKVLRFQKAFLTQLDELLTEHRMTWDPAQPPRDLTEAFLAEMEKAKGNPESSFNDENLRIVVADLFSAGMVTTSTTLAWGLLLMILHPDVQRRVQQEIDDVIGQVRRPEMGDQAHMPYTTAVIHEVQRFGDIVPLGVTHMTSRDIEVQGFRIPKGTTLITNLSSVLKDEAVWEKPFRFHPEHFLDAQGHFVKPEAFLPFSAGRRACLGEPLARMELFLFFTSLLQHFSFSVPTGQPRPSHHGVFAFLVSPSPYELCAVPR

CCCn1nnnc1NC(=O)COc1ccc(Cl)cc1C
CC50 [1]: 34.5 µM (active)
AC50 (Cytochrome P450 2D6): 25.1 µM (inconclusive)

COC(=O)c1c(C(=O)OC)c(-c2ccc(F)cc2)n2c1C[S+]([O-])C2 (stereo not given)
AC50 [2]: 10.3 µM (active)

NC(=O)c1ccc(Oc2cccc3cccnc23)c([N+](=O)[O-])c1
AC50 [2]: 2.3 µM (active)

COc1cc(OC)c(OC)cc1CNCCc1ccc(F)cc1
EC50 [3]: < 0.1 µM (active)
EC50 [4]: > 60 µM (not active)
EC50 (cells): 0.055 µM (active)

CCOC(=O)c1ccc(-[n+]2c(-c3ccccc3)cc(-c3ccccc3)cc2-c2ccccc2)cc1.[O-][Cl+3]([O-])([O-])[O-]
EC50 [3]: < 0.1 µM (active)
EC50 [4]: > 60 µM (not active)
AC50 (INS1): 2.02 µM (active)
EC50 (cells): 0.047 µM (active)

CCOC(=O)c1ccc(N2C(=O)c3[nH]nc(C)c3C2c2ccc(OC)cc2OC)cc1 (stereo not given)
CC50 [5]: > 40 µM (active)

Nc1ccc(N=Nc2ccccc2O)c(N)c1
CC50 [1]: > 40 µM (active)

CN(C)CCN(Cc1ccco1)C(=O)c1cc2c(Cl)nc3ccccc3c2s1
EC50 (Beta-galactosidase): > 40 µM (inactive)
EC50 [3]: < 0.1 µM (active)
IC50 [6]: 33.8 µM (not active)
EC50 [4]: 9.5 µM (active)
EC50 (cells): 0.115 µM (active)

CN(C)CCNc1ccc(-c2nn(C)c(=O)c3ccccc23)cc1[N+](=O)[O-]
EC50 [3]: < 0.1 µM (active)
EC50 [4]: > 60 µM (not active)
EC50 (cells): 0.062 µM (active)

Cc1cccc(C(=O)Nc2scc(-c3ccc(Br)cc3)c2C(=O)O)c1
EC50 [7]: 2.33 µM (active)
EC50 (Streptokinase A): > 150 µM (not active)
EC50 (Streptococcus): 8.14 µM (active)
IC50 (Caspase-3 [8]): 5.21 µM (active)
IC50 [9]: > 100 µM (inactive)
IC50 [10]: 4.28 µM (active)
IC50 [11]: 3.72 µM (active)
IC50 (Caspase-3 [12]): 4.89 µM (active)
IC50 [13]: 3.42 µM (active)
IC50 [14]: 6.38 µM (active)

C[C@H](CO)N1C[C@H](C)[C@@H](CN(C)Cc2ccc3c(c2)OCO3)Oc2ccc(NC(=O)Cn3cnnn3)cc2CC1=O
AC50 [2]: 13 µM (active)

COC(=O)C[C@@H]1CC[C@@H]2[C@H](COC[C@@H](O)CN2C(=O)Nc2cccc(F)c2)O1
AC50 [2]: 10 µM (active)

O=C(c1cccc(F)c1)N1CC[C@@H]2[C@H]1c1cc(-c3cccc(F)c3)ccc1N[C@@H]2CO
AC50 [2]: 5.94 µM (active)

O=C(N/N=C1\CCC\C1=C(/O)C(F)(F)F)c1cccc(O)c1
CC50 [1]: 32.2 µM (active)
